From patent publication US20080279907A1, “Antimicrobial medical devices and methods for making and using same” (Ash Access Technology, Inc., priority 2007, published 2008)

Legend:
[1] = Desorption of parabens from paraben impregnated polycarbonate catheter pieces in 0.24 M sodium citrate pH 6.2 (HPLC); assay type: physicochemical
Protocol: One inch polycarbonate catheter pieces including a surface area of about 4.64 cm^2 were impregnated with methyl paraben and propyl paraben. A solution of 100% 1,2-propanediol was prepared with 9% methyl paraben and 2% propyl paraben. Pairs of the one inch catheter pieces were placed into three 25 ml flasks including 10 ml of the 1,2-propanediol and paraben solution. The flasks including the catheter pieces were placed on a shaker at 220 rpm and 27° C. for two, four, or nine hour time periods. At the end of each time period, the catheter pieces were removed, rinsed with distilled water, and dried.
Desorption analysis of the paraben impregnated catheter pieces was performed in 0.24 M sodium citrate with a pH of 6.2. The total amount of either methyl paraben or propyl paraben released from the catheter pieces was calculated using HPLC analysis performed with a Waters Alliance 2690 including a 996 Photodiode Array Detector. Each calculation used a solution of HPLC grade H2O, methanol (MeOH), and acetonitrile (CAN) which were pre-filtered through a Millipore 0.45 μm nylon filter before use. Trifluoracetic acid (TFA) was added to H2O and acetonitrile (ACN) to 0.1%. A Waters Symmetry column (C8 3.9×150 mm, 5 μm) was applied with a Waters guard column (Waters, Sentry Guard column, Nova-Pak C18, 60A, 4 μm 3.9×20 mm).
A gradient of 67% H2O/33% ACN was used for 6.5 min, ramped to 45 %/55% from 6.5 to 7.0 min, and kept at 45%/55% until 15.0 min, at 15.0 min the concentration reverted to 67%/33%, and the system was run until 18 min. Injection volume for each sample was 10 μl and samples and column were run at ambient temperature.
Table 2 includes the graphical data represented in FIG. 8 and associated with the desorption of propyl paraben from the paraben impregnated catheter pieces prepared as discussed above. Again, the samples were impregnated only with parabens and desorbed in 10 ml 0.24 M Na-citrate, pH 6.2 over time.

[2] = Perfusion of parabens and methylene blue through polycarbonate membrane in perfusion chamber (HPLC of lower chamber); assay type: physicochemical
Protocol: An experiment was performed to determine a method for perfusing methylene blue, methyl paraben, and propyl paraben through a polycarbonate membrane with causing only minimal changes to the strength and elasticity of the membrane. In FIG. 12, there is illustrated a perfusion chamber system 50 used during the experiment. System 50 includes an upper chamber 51 and a lower chamber 52 separated by a polycarbonate membrane 53 having a thickness of 0.60 mm. The upper and lower chambers 51, 52 are generally structured to hold 10.5 cm^3 or 10.5 ml of fluid. The upper chamber 51 was connected to a peristaltic pump (not shown) and the lower chamber 52 was filled with distilled water. First and second solutions, respectively including the parabens and the methylene blue, were prepared in accordance with the method set forth in EXAMPLE 6 above. As best seen in Tables 6 and 7 below, the solutions were connected to the pump and passed through the first chamber 51 at a constant rate at 37° C. over various lengths of time.
Table 6 includes data obtained from HPLC analysis comparing the methyl paraben, propyl paraben, and methylene blue concentrations in the lower chamber 52. The parameters for the methyl and propyl paraben and methylene blue treatments are indicated in the left hand columns.

[3] = lower chamber, 20% PG/80% DI H2O (0.9% MP, 0.2% PP) ~9 hrs at 37 C., then MB ~10 days

- desorption by the end of the study ([1]; nearly 3 months, FIGS. 8 and 9): negligible desorption
- period of significant release ([1]; paraben impregnated catheter pieces, 0.24 M Na-citrate pH 6.2): 10 days
- Total MP released (mg)/1″ catheter ([1]; treatment 2 hrs (100% PG, 9% MP, 2% PP), time 1 hour): 0.361 mg/1″ catheter
- Total MP released (mg)/1″ catheter ([1]; treatment 2 hrs (100% PG, 9% MP, 2% PP), time 3 hours): 0.577 mg/1″ catheter
- Total MP released (mg)/1″ catheter ([1]; treatment 2 hrs (100% PG, 9% MP, 2% PP), time 7 hours): 0.84 mg/1″ catheter
- Total MP released (mg)/1″ catheter ([1]; treatment 2 hrs (100% PG, 9% MP, 2% PP), time 24 hours): 1.17 mg/1″ catheter
- Total MP released (mg)/1″ catheter ([1]; treatment 2 hrs (100% PG, 9% MP, 2% PP), time 4 days): 1.519 mg/1″ catheter
- Total MP released (mg)/1″ catheter ([1]; treatment 2 hrs (100% PG, 9% MP, 2% PP), time 5 days): 1.685 mg/1″ catheter
- Total MP released (mg)/1″ catheter ([1]; treatment 2 hrs (100% PG, 9% MP, 2% PP), time 6 days): 1.826 mg/1″ catheter
- Total MP released (mg)/1″ catheter ([1]; treatment 2 hrs (100% PG, 9% MP, 2% PP), time 8 days): 2.002 mg/1″ catheter
- Total MP released (mg)/1″ catheter ([1]; treatment 2 hrs (100% PG, 9% MP, 2% PP), time 11 days): 2.129 mg/1″ catheter
- Total MP released (mg)/1″ catheter ([1]; treatment 2 hrs (100% PG, 9% MP, 2% PP), time 13 days): 2.208 mg/1″ catheter
- Total MP released (mg)/1″ catheter ([1]; treatment 2 hrs (100% PG, 9% MP, 2% PP), time 15 days): 2.281 mg/1″ catheter
- Total MP released (mg)/1″ catheter ([1]; treatment 2 hrs (100% PG, 9% MP, 2% PP), time 18 days): 2.325 mg/1″ catheter
- Total MP released (mg)/1″ catheter ([1]; treatment 2 hrs (100% PG, 9% MP, 2% PP), time 22 days): 2.356 mg/1″ catheter
- Total MP released (mg)/1″ catheter ([1]; treatment 2 hrs (100% PG, 9% MP, 2% PP), time 29 days): 2.377 mg/1″ catheter
- Total MP released (mg)/1″ catheter ([1]; treatment 2 hrs (100% PG, 9% MP, 2% PP), time 36 days): 2.392 mg/1″ catheter
- Total MP released (mg)/1″ catheter ([1]; treatment 2 hrs (100% PG, 9% MP, 2% PP), time 50 days): 2.402 mg/1″ catheter
- Total MP released (mg)/1″ catheter ([1]; treatment 2 hrs (100% PG, 9% MP, 2% PP), time 67 days): 2.409 mg/1″ catheter
- Total MP released (mg)/1″ catheter ([1]; treatment 2 hrs (100% PG, 9% MP, 2% PP), time 81 days): 2.413 mg/1″ catheter
- Total MP released (mg)/1″ catheter ([1]; treatment 4 hrs (100% PG, 9% MP, 2% PP), time 1 hour): 0.603 mg/1″ catheter
- Total MP released (mg)/1″ catheter ([1]; treatment 4 hrs (100% PG, 9% MP, 2% PP), time 3 hours): 1.04 mg/1″ catheter
- Total MP released (mg)/1″ catheter ([1]; treatment 4 hrs (100% PG, 9% MP, 2% PP), time 7 hours): 1.472 mg/1″ catheter
- Total MP released (mg)/1″ catheter ([1]; treatment 4 hrs (100% PG, 9% MP, 2% PP), time 24 hours): 2.223 mg/1″ catheter
- Total MP released (mg)/1″ catheter ([1]; treatment 4 hrs (100% PG, 9% MP, 2% PP), time 4 days): 2.774 mg/1″ catheter
- Total MP released (mg)/1″ catheter ([1]; treatment 4 hrs (100% PG, 9% MP, 2% PP), time 5 days): 3.01 mg/1″ catheter
- Total MP released (mg)/1″ catheter ([1]; treatment 4 hrs (100% PG, 9% MP, 2% PP), time 6 days): 3.146 mg/1″ catheter
- Total MP released (mg)/1″ catheter ([1]; treatment 4 hrs (100% PG, 9% MP, 2% PP), time 8 days): 3.324 mg/1″ catheter
- Total MP released (mg)/1″ catheter ([1]; treatment 4 hrs (100% PG, 9% MP, 2% PP), time 11 days): 3.449 mg/1″ catheter
- Total MP released (mg)/1″ catheter ([1]; treatment 4 hrs (100% PG, 9% MP, 2% PP), time 13 days): 3.536 mg/1″ catheter
- Total MP released (mg)/1″ catheter ([1]; treatment 4 hrs (100% PG, 9% MP, 2% PP), time 15 days): 3.597 mg/1″ catheter
- Total MP released (mg)/1″ catheter ([1]; treatment 4 hrs (100% PG, 9% MP, 2% PP), time 18 days): 3.646 mg/1″ catheter
- Total MP released (mg)/1″ catheter ([1]; treatment 4 hrs (100% PG, 9% MP, 2% PP), time 22 days): 3.676 mg/1″ catheter
- Total MP released (mg)/1″ catheter ([1]; treatment 4 hrs (100% PG, 9% MP, 2% PP), time 29 days): 3.701 mg/1″ catheter
- Total MP released (mg)/1″ catheter ([1]; treatment 4 hrs (100% PG, 9% MP, 2% PP), time 36 days): 3.722 mg/1″ catheter
- Total MP released (mg)/1″ catheter ([1]; treatment 4 hrs (100% PG, 9% MP, 2% PP), time 50 days): 3.74 mg/1″ catheter
- Total MP released (mg)/1″ catheter ([1]; treatment 4 hrs (100% PG, 9% MP, 2% PP), time 67 days): 3.749 mg/1″ catheter
- Total MP released (mg)/1″ catheter ([1]; treatment 4 hrs (100% PG, 9% MP, 2% PP), time 81 days): 3.755 mg/1″ catheter
- Total MP released (mg)/1″ catheter ([1]; treatment 9 hrs (100% PG, 9% MP, 2% PP), time 1 hour): 0.67 mg/1″ catheter
- Total MP released (mg)/1″ catheter ([1]; treatment 9 hrs (100% PG, 9% MP, 2% PP), time 3 hours): 1.18 mg/1″ catheter
- Total MP released (mg)/1″ catheter ([1]; treatment 9 hrs (100% PG, 9% MP, 2% PP), time 7 hours): 1.504 mg/1″ catheter
- Total MP released (mg)/1″ catheter ([1]; treatment 9 hrs (100% PG, 9% MP, 2% PP), time 24 hours): 1.993 mg/1″ catheter
- Total MP released (mg)/1″ catheter ([1]; treatment 9 hrs (100% PG, 9% MP, 2% PP), time 4 days): 2.725 mg/1″ catheter
- Total MP released (mg)/1″ catheter ([1]; treatment 9 hrs (100% PG, 9% MP, 2% PP), time 5 days): 3.082 mg/1″ catheter
- Total MP released (mg)/1″ catheter ([1]; treatment 9 hrs (100% PG, 9% MP, 2% PP), time 6 days): 3.27 mg/1″ catheter
- Total MP released (mg)/1″ catheter ([1]; treatment 9 hrs (100% PG, 9% MP, 2% PP), time 8 days): 3.456 mg/1″ catheter
- Total MP released (mg)/1″ catheter ([1]; treatment 9 hrs (100% PG, 9% MP, 2% PP), time 11 days): 3.593 mg/1″ catheter
- Total MP released (mg)/1″ catheter ([1]; treatment 9 hrs (100% PG, 9% MP, 2% PP), time 13 days): 3.676 mg/1″ catheter
- Total MP released (mg)/1″ catheter ([1]; treatment 9 hrs (100% PG, 9% MP, 2% PP), time 15 days): 3.734 mg/1″ catheter
- Total MP released (mg)/1″ catheter ([1]; treatment 9 hrs (100% PG, 9% MP, 2% PP), time 18 days): 3.788 mg/1″ catheter
- Total MP released (mg)/1″ catheter ([1]; treatment 9 hrs (100% PG, 9% MP, 2% PP), time 22 days): 3.832 mg/1″ catheter
- Total MP released (mg)/1″ catheter ([1]; treatment 9 hrs (100% PG, 9% MP, 2% PP), time 29 days): 3.872 mg/1″ catheter
- Total MP released (mg)/1″ catheter ([1]; treatment 9 hrs (100% PG, 9% MP, 2% PP), time 36 days): 3.912 mg/1″ catheter
- Total MP released (mg)/1″ catheter ([1]; treatment 9 hrs (100% PG, 9% MP, 2% PP), time 50 days): 3.944 mg/1″ catheter
- Total MP released (mg)/1″ catheter ([1]; treatment 9 hrs (100% PG, 9% MP, 2% PP), time 67 days): 3.958 mg/1″ catheter
- Total MP released (mg)/1″ catheter ([1]; treatment 9 hrs (100% PG, 9% MP, 2% PP), time 81 days): 3.967 mg/1″ catheter
- time until perfused through the membrane and detected in the lower chamber ([2]; 0.60 mm polycarbonate membrane, 37° C.): within two hours
- ratio MP/PP from this sample ([2]; lower chamber sample): 4.7
- MP Conc [2, 3]: 0.047 mg/mL
- Total mg MP in 10.5 mL lower chamber [2, 3]: 0.4935 mg
Compound: COC(=O)c1ccc(O)cc1 [MP, methyl paraben]
